The subject of one data set is antifungal activity. The note with it: reported by Brown and Evans; cited from earlier work.
The test system of data set [1] is antitumor activity. In words: Antitumor activity of clavam 1 in vivo.
The nature of the next data set: Chemical stability. Type of data set: physicochemical.
The subject of data set [2] is antitumor activity. In words: Antitumor activity of clavam 1 in vitro. It is filed as cell-based.
The subject of a further data set is KB cells. In words: In vitro KB cell cytotoxicity assay (crystal violet). It is filed as cell-based. The note with it: Homo sapiens, 72 h, 3 days culture, read-out: KB Cell Cytotoxicity TD50. The essentials: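 Cells seeded at 3×10^4 cells/ml in Eagle's MEM with 10% calf serum, cultured one day, then exposed to compound for three days at 37° C, 5% CO2. Glutaraldehyde-fixed cells stained with 0.05% crystal violet, eluted and read at OD540; TD50 from linear regression of log-logit plot of growth inhibition.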

A further data set has as its system L-1210 (R) cells. In words: In vitro L1210 cell cytotoxicity (microculture tetrazolium assay), resistant line. It is filed as cell-based. The note with it: Mus musculus, L1210, 72 h; L-1210 resistant, 3 days culture; read-out: Cell Toxicity L-1210 (R) (TD50). As for the experimental part:
(§1) In Vitro L1210 and P388 Cell Cytotoxicity Assay
(§2) Cells were counted using neubauer hemocytometer and seed in 96 well plates at 100 μl of 0.5×10^4 cells per ml. […] Control wells were identical except that the test compound was absent. These were cultured for three days. Results were assayed using the microculture tetrazolium assay briefly. 50 μl of MTT formazoan working solution (1:5 v/v in culture medium) was added to each well and cultures were incubated at 37° C. for 4 hrs. Culture plates were centrifuged at low speed for 5 minutes. All but 10-20 μl of culture medium supernatant was removed by slow aspiration and […] and read at OD540 on a multiscan spectrophotometer. Inhibition value of cell growth was calculated based on optical density using the following equation; [formula]
(§3) TD50 values were calculated from linear regression ines of the log-logit plot.

Another data set concerns L-1210 (S) cells. Put plainly: In vitro L1210 cell cytotoxicity (microculture tetrazolium assay), sensitive line. The note with it: Mus musculus, L1210, 72 h; L-1210 sensitive, 3 days culture; read-out: Cell Toxicity L-1210 (S) (TD50). Type of data set: cell-based. The method, then: as §1, §2, §3
A further data set deals with Sarcoma 180. Put plainly: In vivo antitumor activity against Sarcoma 180. More on the design: species or system male ICR mice. The conditions noted are these: i.p., days 1, 5 and 9. The essentials:
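Male ICR mice (6 weeks) inoculated s.c. with 5×10^6 Sarcoma 180 cells on day 0, dosed on days 1, 5 and 9 (6–7 per group). Tumours weighed on day 12; % inhibition from mean tumour weight of treated versus control group.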

For a further data set, the system named is P388 (S) cells. Put plainly: In vitro P388 cell cytotoxicity (microculture tetrazolium assay), sensitive line. Type of data set: cell-based. The conditions noted are these: Mus musculus, 72 h, P388 sensitive, 3 days culture, read-out: Cell Toxicity P388 (S) (TD50). The method, then: as §1, §2, §3
The next data set deals with P388 (R) cells. In words: In vitro P388 cell cytotoxicity (microculture tetrazolium assay), resistant line. Type of data set: cell-based. The note with it: Mus musculus, 72 h; P388 resistant, 3 days culture; read-out: Cell Toxicity P388 (R) (TD50). The method, then: as §1, §2, §3

SMILES strings stand for the structures. Values after ≈ are worked out from the molar mass of the structure shown.

Turning to `O=C1C[C@@H]2O[C@@H](CO)CN12` [clavam 1, (3R,5S)-3-hydroxymethyl-4-oxa-1-azabicyclo[3.2.0]heptan-7-one], the antifungal activity entry in the data set on antifungal activity is on record as “exhibit antifungal activity”. Also, the “antitumor activity in vivo” value in the data set with antitumor activity [1] is on record as “excellent antitumor activity”. Besides, in “Chemical stability”, the chemical stability result is given as “chemically unstable”. The “antitumor activity in vitro” value with antitumor activity [2] was “excellent antitumor activity”.

`CC(=O)NC[C@@H]1CN2C(=O)C[C@H]2O1` (racemic) [Example 1, (3RS,5RS)-3-(N-Acetylaminomethyl)-4-oxa-1-azabicyclo[3.2.0]heptan-7-one]: the IC50 in the data set with KB cells is 0.263 µg/mL (≈ 1.43 µM); in the data set on L-1210 (R) cells it was 0.104 µg/mL (≈ 0.565 µM); in the data set with L-1210 (S) cells, 0.103 µg/mL (≈ 0.559 µM); in the data set on P388 (S) cells it was 0.103 µg/mL (≈ 0.559 µM); with P388 (R) cells, 0.074 µg/mL (≈ 0.402 µM). The “Mortality in 12 days” value with Sarcoma 180 (3.1 mg/kg/day), in the data set on Sarcoma 180 (6.25 mg/kg/day) and in the data set with Sarcoma 180 (12.5 mg/kg/day) was 0/6 in each case. Besides, the inhibition in vivo at 3.1 mg/kg in the data set with Sarcoma 180 (Mus musculus, Sarcoma-180, ip, 288 h, 3.1 mg/kg/day, tumor s.c., tumor weight day 12, read-out: % Inhibition of tumor growth) was determined as 33.9%. For the same molecule, the inhibition in vivo at 6.25 mg/kg with Sarcoma 180 (Mus musculus, Sarcoma-180, ip, 288 h, 6.25 mg/kg/day, tumor s.c., tumor weight day 12, read-out: % Inhibition of tumor growth) was 49.3%. In the data set with Sarcoma 180 (Mus musculus, Sarcoma-180, ip, 288 h, 12.5 mg/kg/day, tumor s.c., tumor weight day 12, read-out: % Inhibition of tumor growth), the inhibition in vivo at 12.5 mg/kg is 71.4%.
